Laboratory results from patent US11524966B1 (Valo Early Discovery, Inc., priority 2017, dated 2022).

Target: T1, USP28 (His-tagged USP28-FL-mammalian) (Homo sapiens, UniProt Q96RU2)
T1 construct: Expression of USP28 (1-1077)-TEV-6*His (pTT5 vector); made in house; host or cells: Expi293f cells (pTT5 vector)
T1 sequence (Q96RU2 1-1077): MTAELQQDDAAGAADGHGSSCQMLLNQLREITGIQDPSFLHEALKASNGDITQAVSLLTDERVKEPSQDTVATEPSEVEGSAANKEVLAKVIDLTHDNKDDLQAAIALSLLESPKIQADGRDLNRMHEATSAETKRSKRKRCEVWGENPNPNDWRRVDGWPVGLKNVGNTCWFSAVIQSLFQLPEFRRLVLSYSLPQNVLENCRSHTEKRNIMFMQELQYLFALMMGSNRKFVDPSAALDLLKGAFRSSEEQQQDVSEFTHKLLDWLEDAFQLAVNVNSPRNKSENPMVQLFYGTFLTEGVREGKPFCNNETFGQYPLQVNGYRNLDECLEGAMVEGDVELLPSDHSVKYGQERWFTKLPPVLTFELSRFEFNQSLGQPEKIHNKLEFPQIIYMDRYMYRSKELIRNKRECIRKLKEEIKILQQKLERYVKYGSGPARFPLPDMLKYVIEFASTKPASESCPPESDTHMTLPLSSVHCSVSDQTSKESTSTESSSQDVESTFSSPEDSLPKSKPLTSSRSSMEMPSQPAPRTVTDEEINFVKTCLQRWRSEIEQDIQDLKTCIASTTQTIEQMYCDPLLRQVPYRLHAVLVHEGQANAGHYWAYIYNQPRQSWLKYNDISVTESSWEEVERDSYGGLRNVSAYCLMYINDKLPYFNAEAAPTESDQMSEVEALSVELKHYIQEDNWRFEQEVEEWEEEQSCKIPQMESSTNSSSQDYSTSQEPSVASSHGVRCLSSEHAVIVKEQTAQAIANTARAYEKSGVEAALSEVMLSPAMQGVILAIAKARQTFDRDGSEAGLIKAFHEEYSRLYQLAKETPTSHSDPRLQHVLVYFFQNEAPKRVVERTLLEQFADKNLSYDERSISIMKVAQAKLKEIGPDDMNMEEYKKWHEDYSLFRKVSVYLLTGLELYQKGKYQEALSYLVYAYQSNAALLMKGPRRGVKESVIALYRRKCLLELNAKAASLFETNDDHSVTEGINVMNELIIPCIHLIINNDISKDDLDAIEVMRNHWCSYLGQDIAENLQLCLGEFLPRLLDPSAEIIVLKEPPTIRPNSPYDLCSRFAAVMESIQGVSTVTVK
Experiment: Ubiquitin-Rhodamine 110 Assay for USP28 Activity, Example A-1(a)
Format: biochemical
Conditions: Ubiquitin-Rhodamine 110 assay, Example A-1(a); read-out: USP28 A-1(a) IC50 range
Protocol: Example A-1(a): Biochemical Assay: Ubiquitin-Rhodamine 110 Assay for USP28 Activity
The assay was performed in a final volume of 9 μL in assay buffer containing 20 mM Tris-HCl (pH 8.0, (1M Tris-HCl, pH 8.0 solution; Corning 46-031-CM)), 3 mM BME (2-Mercaptoethanol; Sigma 63689-25ML-F), 0.03% BGG (0.22 μM filtered, Sigma, G7516-25G), and 0.01% Triton X-100 (Sigma, T9284-10L). Nanoliter quantities of 10-point, 3-fold serial dilution in DMSO was pre-dispensed into 1536 assay plates (Corning, #3724BC) for a final test concentration of 25 μM to 1.3 nM, top to lowest dose, respectively. Enzyme USP28, construct His-tagged USP28-FL-mammalian, (protein expression and purification procedure described below). Concentration and incubation times were optimized for the maximal signal-to-background while maintaining initial velocity conditions at a fixed substrate concentration. The final concentration of the enzyme in the assay was 75 μM. Final substrate (Ub-Rh110; Ubiquitin-Rhodamine 110, UbiQ-126) concentration was 25 nM with [Ub-Rh110]<<Km. 3 μL of 2× enzyme was added to assay plates (pre-stamped with compound) preincubated with […] for 30 minutes and then 3 μL of 2×Ub-Rh110 was added to assay plates. Plates were incubated for 45 minutes at room temperature before addition of 3 μL of stop solution (final concentration of 10 mM citric acid (Sigma, 251275-500G)). Fluorescence was read on the Envision (Excitation at 485 nm and Emission at 535 nm; Perkin Elmer) or on the PheraSTAR (Excitation at 485 nm and Emission at 535 nm; BMG Labtech).
Procedure for the Protein Expression and Purification for Construct His-Tagged USP28-FL-Mammalian
Expression of USP28 (1-1077)-TEV-6*His (pTT5 vector) was carried out in Expi293f cells (sequence derived from uniprot ID: Q96RU2-1). Cells were re-suspended in lysis buffer B 50 mM Bicine, pH 8.0, 20 mM NaCl, 5% glycerol, 0.1% CHAPS, 5 mM β-ME, 1 mM PMSF, 1 ug/ml Leupeptin, 1 ug/ml Pepstatin) and lysed by sonication. Insoluble material was removed by centrifugation and the supernatant was loaded onto a Ni-NTA column (GE Healthcare) equilibrated with Ni Buffer A (50 mM Bicine, pH 8.0, 20 mM NaCl, 5% glycerol, 0.1% CHAPS, 5 mM β-ME.) and washed with Ni Buffer A+20 mM imidazole until A280 reached baseline. The protein was eluted with Ni Buffer B (50 mM Bicine, pH 8.0, 20 mM NaCl, 5% glycerol, 0.1% CHAPS, 5 mM β-ME, 300 mM imidazole.). The protein was further purified using a Superdex™ 200 10/300 GL column (GE Healthcare) equilibrated with 50 mM Bicine, pH 8.0, 20 mM NaCl, 5% glycerol, 0.1% CHAPS, 5 mM β-ME. The protein was concentrated to 2.5 mg ml^−1, flash-frozen in liquid N2 and stored at −80° C.
For assay formats Example A-1(a), A-1(b), and A-2, data were reported as percent inhibition compared with control wells based on the following equation: % inh=1−((FLU−AveLow)/(AveHigh−AveLow)) where FLU=measured Fluorescence, AveLow=average Fluorescence of no enzyme control (n=16), and AveHigh=average Fluorescence of DMSO control (n=16). IC50 values were determined by curve fitting of the standard 4 parameter logistic fitting algorithm included in the Activity Base software package: IDBS XE Designer Model 205. Data is fitted using the Levenburg Marquardt algorithm.

SMILES | IC50 [nM]
CO[C@H]1CN(c2ncc3c(n2)CC[C@@H](NC(=O)c2sc4nc(C)ccc4c2N)C3)C[C@@H]1N [Example 187, 3-amino-N-[(6R)-2-[(3S,4S)-3-amino-4-methoxypyrrolidin-1-yl]-5,6,7,8-tetrahydroquinazolin-6-yl]-6-methylthieno[2,3-b]pyridine-2-carboxamide] | 200 to 2000
Cc1ccc2c(N)c(C(=O)N[C@H]3CCc4nc(N5CC[C@@](N)(CO)C5)ccc4C3)sc2n1 [Example 387, 3-amino-N-[(6S)-2-[(3S)-3-amino-3-(hydroxymethyl)pyrrolidin-1-yl]-5,6,7,8-tetrahydroquinolin-6-yl]-6-methylthieno[2,3-b]pyridine-2-carboxamide] | 50 to 200
CCO[C@H]1CN(c2cc3c(cn2)C[C@@H](NC(=O)c2sc4nc(C)ccc4c2N)CO3)C[C@@H]1N [Example 180, 3-amino-N-[(3R)-7-[(3S,4S)-3-amino-4-ethoxypyrrolidin-1-yl]-2H,3H,4H-pyrano[3,2-c]pyridin-3-yl]-6-methylthieno[2,3-b]pyridine-2-carboxamide] | 1 to 50
Cc1ccc2c(N)c(C(=O)N[C@H]3CCc4nc(N5CC6(C[C@H](N)CO6)C5)ccc4C3)sc2n1 [Example 399, 3-amino-N-[(6S)-2-[(7S)-7-amino-5-oxa-2-azaspiro[3.4]octan-2-yl]-5,6,7,8-tetrahydroquinolin-6-yl]-6-methylthieno[2,3-b]pyridine-2-carboxamide] | 1 to 50
Cc1ccc2c(N)c(C(=O)N[C@H]3CCc4nc(N5C[C@@H]6CCN[C@H](C5)C6(F)F)ccc4C3)sc2n1 [Example 367, 3-amino-N-[(6S)-2-[(1R,5S)-9,9-difluoro-2,7-diazabicyclo[3.3.1]nonan-7-yl]-5,6,7,8-tetrahydroquinolin-6-yl]-6-methylthieno[2,3-b]pyridine-2-carboxamide] | 1 to 50
Cc1ccc2c(N)c(C(=O)N[C@H]3CCc4nc(N5C[C@@H](CF)[C@@H](N)C5)ccc4C3)sc2n1 (single isomer, unassigned) [Example 27-1] | 50 to 200
CO[C@]1(C)CN(c2ccc3c(n2)CC[C@H](NC(=O)c2sc4nc(C)ccc4c2N)C3)C[C@@H]1N [Example 427, 3-amino-N-[(6S)-2-[(3R,4S)-4-amino-3-methoxy-3-methylpyrrolidin-1-yl]-5,6,7,8-tetrahydroquinolin-6-yl]-6-methylthieno[2,3-b]pyridine-2-carboxamide] | 50 to 200
Cc1ccc2c(N)c(C(=O)N[C@H]3CCc4nc(N5CC[C@]6(C5)OCC[C@H]6N)ccc4C3)sc2n1 [Example 408, 3-amino-N-[(6S)-2-[(4R,5R)-4-amino-1-oxa-7-azaspiro[4.4]nonan-7-yl]-5,6,7,8-tetrahydroquinolin-6-yl]-6-methylthieno[2,3-b]pyridine-2-carboxamide] | 50 to 200
COCCO[C@H]1CN(c2ccc3c(n2)CC[C@H](NC(=O)c2sc4nc(C)ccc4c2N)C3)C[C@@H]1N (single isomer, unassigned) [Example 28-1] | 200 to 2000
Cc1ccc2c(N)c(C(=O)N[C@H]3CCc4cc(N5C[C@@H](CF)[C@@H](N)C5)ccc4C3)sc2n1 [Example 436, 3-amino-N-[(2S)-6-[(3R,4R)-3-amino-4-(fluoromethyl)pyrrolidin-1-yl]-1,2,3,4-tetrahydronaphthalen-2-yl]-6-methylthieno[2,3-b]pyridine-2-carboxamide] | 1 to 50
Cc1ccc2c(N)c(C(=O)N[C@@H]3CCc4nc(N5C[C@H](C(F)F)[C@@H](N)C5)ncc4C3)sc2n1 [Example 383, 3-amino-N-[(6R)-2-[(3R,4S)-3-amino-4-(difluoromethyl)pyrrolidin-1-yl]-5,6,7,8-tetrahydroquinazolin-6-yl]-6-methylthieno[2,3-b]pyridine-2-carboxamide] | > 2000
CO[C@]12CCN[C@@H]1CN(c1ccc3c(n1)CC[C@H](NC(=O)c1sc4nc(C)ccc4c1N)C3)C2 [Example 435, N-[(6S)-2-[(3aS,6aR)-3a-methoxy-octahydropyrrolo[2,3-c]pyrrol-5-yl]-5,6,7,8-tetrahydroquinolin-6-yl]-3-amino-6-methylthieno[2,3-b]pyridine-2-carboxamide] | 50 to 200
Cc1ccc2c(N)c(C(=O)N[C@H]3CCc4nc(N5CC6(C[C@@H](N)CO6)C5)ccc4C3)sc2n1 [Example 398, 3-amino-N-[(6S)-2-[(7R)-7-amino-5-oxa-2-azaspiro[3.4]octan-2-yl]-5,6,7,8-tetrahydroquinolin-6-yl]-6-methylthieno[2,3-b]pyridine-2-carboxamide] | 50 to 200
COC[C@]1(N)CCN(c2ccc3c(n2)CC[C@H](NC(=O)c2sc4nc(C)ccc4c2N)C3)C1 [Example 389, 3-amino-N-[(6S)-2-[(3S)-3-amino-3-(methoxymethyl)pyrrolidin-1-yl]-5,6,7,8-tetrahydroquinolin-6-yl]-6-methylthieno[2,3-b]pyridine-2-carboxamide] | 50 to 200
Cc1ccc2c(N)c(C(=O)N[C@H]3CCc4nc(N5C[C@H]6COC[C@@H](C5)[C@H]6N)ccc4C3)sc2n1 [Example 396, 3-amino-6-methyl-N-[(6S)-2-[(1R,5S,9r)-9-amino-3-oxa-7-azabicyclo[3.3.1]nonan-7-yl]-5,6,7,8-tetrahydroquinolin-6-yl]thieno[2,3-b]pyridine-2-carboxamide] | 50 to 200
CO[C@@]1(C)CN(c2ccc3c(n2)CC[C@H](NC(=O)c2sc4nc(C)ccc4c2N)C3)C[C@H]1N [Example 428, 3-amino-N-[(6S)-2-[(3S,4R)-4-amino-3-methoxy-3-methylpyrrolidin-1-yl]-5,6,7,8-tetrahydroquinolin-6-yl]-6-methylthieno[2,3-b]pyridine-2-carboxamide] | 50 to 200
Cc1ccc2c(N)c(C(=O)N[C@H]3CCc4nc(N5C[C@H](CF)[C@H](N)C5)ccc4C3)sc2n1 (single isomer, unassigned) [Example 27-2] | 50 to 200
